For 9 compounds, Kd results are on record in article PMC7409020, “Tumor-Targeting Peptides: The Functional Screen of Glioblastoma Homing Peptides to the Target Protein FABP3 (MDGI)” (Cancers, 2020).

Square brackets hold non-standard residues; d marks the D form. Peptide text beside a SMILES is read from it.

This experiment concerns the target T1, recombinant FABP3 (Homo sapiens, UniProt P05413).
T1 construct: made in house; host or cells: Escherichia coli BL21 (DE3)
Description: Microscale thermophoresis (MST) binding to NT-650-NHS-labeled FABP3. As to conditions: 20 nM labeled FABP3; peptide 500 µM to 0.0153 µM, two-fold dilutions; PBS-tween 20 pH 7.4; 25 °C; 40% MST power; 1:1 fit; mean ± SD of three independent experiments. As to the method:
For the binding affinity measurements between the recombinant FABP3 and the A-CooP, its variants, and the control peptide, we used the microscale thermophoresis. […] For these analyses, FABP3 was labeled with an NT-650-NHS fluorescence. Two-fold serially diluted peptides ranging from 500 µM to 0.0153 µM were titrated against a constant FABP3 concentration (20 nM). The binding events were generated following changes in fluorescence (ΔFnorm) against peptide concentrations. Subsequently, the equilibrium dissociation constant (KD) was calculated using a 1:1 fit model from the law of mass action. The MST binding affinities (KD values) are represented in a bar graph (Figure 4B). The smallest KD value equals the best affinity, and the highest value is the lowest affinity. […] The changes in fluorescence (ΔFnorm) were normalized to the bound fraction (Figure 4C). The data points towards 1 were considered bound fractions, while data points less than 1 represented the unbound fractions.
FABP3 was labeled with a second-generation red amine-reactive NT-650-NHS fluorescent dye using the Nanotemper labeling kit (MO-L011; Nanotemper, https://nanotempertech.com/). The protein/dye concentration ratio and volume ratio were 1:3 and 1:1, respectively, in accordance with the manufacturer’s instructions. The actual concentration and degree of labeling (DOL) were determined using the extinction coefficient Ɛ280 = 18450 M^−1 cm^−1 for FABP3 and Ɛ650 =195000 M^−1 cm^−1 for the NT650 dye. Using the correction factor of 0.04 at 280 nm, the DOL for all labeling reactions was calculated according to manufacturer’s instructions. Binding experiments were carried out in a PBS-tween 20 buffer (10 mM Na2HPO4, 140 mM NaCl, 2.7 mM KCl, 0.05% tween 20, pH 7.4). The binding assay was performed with a fixed concentration (20 nM) of the fluorescently labeled FABP3 (target) and two-fold serially diluted decreasing concentrations (500 µM to 0.0153 µM) of the unlabeled A-CooP variants (ligand). The reaction mixture of 16 serial diluents of A-CooP or its analogues and FABP3 were filled into the capillary tubes (Nanotemper, MO-K022) and loaded in the Monolith NT 115 instrument accordingly. All experiments were carried out at 25 °C, 40% MST power (medium), and 60% LED power. Binding assay and measurements were performed in triplicates for each experimental setup.
A general note: In MST a laser heats a spot of the sample, and binding alters the fluorescence response.

T1 sequence (P05413 whole entry): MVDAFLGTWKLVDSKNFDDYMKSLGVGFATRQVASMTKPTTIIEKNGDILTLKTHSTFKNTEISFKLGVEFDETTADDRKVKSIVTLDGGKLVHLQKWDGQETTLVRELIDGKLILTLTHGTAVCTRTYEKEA

For the compound `CC(C)C[C@H](NC(=O)CNC(=O)[C@H](CO)NC(=O)[C@H](CC(C)C)NC(=O)CNC(=O)[C@H](CS)NC(=O)[C@H](C)NC(=O)[C@@H](N)CCCCN)C(=O)NCC(=O)N[C@H](C(=O)N[C@@H](C)C(N)=O)C(C)C` [KA-CooP] (H-KACGLSGLGVA-NH2), the equilibrium dissociation constant (Kd) stood at 630 ± 130 nM.

As for `CC(C)C[C@@H](NC(=O)CNC(=O)[C@H](NC(=O)[C@@H](C)N)C(C)C)C(=O)NCC(=O)N[C@H](CO)C(=O)N[C@H](CC(C)C)C(=O)NCC(=O)N[C@H](CS)C(=O)N[C@H](C)C(N)=O` [RI-A-CooP] (H-[dA][dV]G[dL]G[dS][dL]G[dC][dA]-NH2), the Kd worked out at 24000 ± 13000 nM.

Consider `CC(C)C[C@H](NC(=O)CNC(=O)[C@H](CO)NC(=O)[C@H](CC(C)C)NC(=O)CNC(=O)[C@H](CS)NC(=O)[C@H](C)N)C(=O)NCC(=O)N[C@@H](C)C(=O)N[C@@H](C)C(N)=O` [A-[Ala^8]CooP] (H-ACGLSGLGAA-NH2), for which the Kd came out at 120 ± 50 nM.

Take `CC(C)C[C@H](NC(=O)CNC(=O)[C@H](CO)NC(=O)[C@H](CC(C)C)NC(=O)CNC(=O)[C@H](CS)NC(=O)[C@H](C)N)C(=O)N[C@@H](C)C(=O)N[C@H](C(=O)N[C@@H](C)C(N)=O)C(C)C` [A-[Ala^7]CooP] (H-ACGLSGLAVA-NH2): the Kd is 133000 ± 75000 nM.

Regarding `CC(C)C[C@H](NC(=O)CNC(=O)[C@H](CO)NC(=O)[C@H](CC(C)C)NC(=O)CNC(=O)[C@H](CS)NC(=O)[C@H](C)N)C(=O)NCC(=O)N[C@H](C(=O)N[C@@H](C)C(=O)N[C@@H](CCCCN)C(N)=O)C(C)C` [A-CooP-K] (H-ACGLSGLGVAK-NH2), the Kd came to 70 ± 10 nM.

`CC(C)C[C@H](NC(=O)CNC(=O)[C@H](CO)NC(=O)[C@H](CC(C)C)NC(=O)CNC(=O)[C@H](CS)NC(=O)[C@H](C)N)C(=O)NCC(=O)N[C@H](C(=O)N[C@@H](C)C(N)=O)C(C)C` [A-CooP] (H-ACGLSGLGVA-NH2): the Kd stood at 2180 ± 1150 nM.

Regarding `CC(C)C[C@H](NC(=O)CNC(=O)[C@H](CO)NC(=O)[C@H](CC(C)C)NC(=O)[C@H](C)NC(=O)[C@H](CS)NC(=O)[C@H](C)N)C(=O)NCC(=O)N[C@H](C(=O)N[C@@H](C)C(N)=O)C(C)C` [A-[Ala^2]CooP] (H-ACALSGLGVA-NH2), the Kd stood at 90 ± 70 nM.

Regarding `CC(C)C[C@H](NC(=O)CNC(=O)[C@H](CO)NC(=O)[C@H](C)NC(=O)CNC(=O)[C@H](CS)NC(=O)[C@H](C)N)C(=O)NCC(=O)N[C@H](C(=O)N[C@@H](C)C(N)=O)C(C)C` [A-[Ala^3]CooP] (H-ACGASGLGVA-NH2), the Kd was found to be 250 ± 140 nM.

Turning to `CC(C)C[C@H](NC(=O)CNC(=O)[C@H](CS)NC(=O)[C@H](C)N)C(=O)N[C@@H](CO)C(=O)NCC(=O)N[C@@H](C)C(=O)NCC(=O)N[C@H](C(=O)N[C@@H](C)C(N)=O)C(C)C` [A-[Ala^6]CooP] (H-ACGLSGAGVA-NH2), the Kd turned out to be 190 ± 30 nM.

A word on the Kd: it is the free concentration of one partner at which half of the binding sites on the other are occupied at equilibrium, for simple one-to-one binding.
